Measured values as given in patent publication US20230286927A1, “2-PHENYLBENZOTRIAZOL-5-AMINE DERIVATIVES FOR THE TREATMENT AND PROPHYLAXIS OF HEPATITIS B VIRUS (HBV) INFECTION” (priority 2020, published 2023).

Tests used:
[1] = system: HBsAg; assay: PHH natural infection assay, HBsAg (alphalisa); format: cell-based, HBV; details: Hepatitis B virus, Hepatocyte, 72 h, read-out: HBsAg IC50
Description: (§1) Detailed procedures regarding primary human hepatocyte (PHH) HBV natural infection assay are described as below. One tube of frozen PHH (10 million cells) is thawed in 37° C. water bath and then transferred to 20 mL of PHH thawing medium (Sigma, InVitroGRO HT Medium, Cat. S03319) with gently mixing. The cells were then centrifuged at […] for 5 min, the supernatant was discarded and the tube was refilled with 25 mL of PHH plating medium (Sigma, InVitroGRO CP Medium, Cat. S03317). The tube was shaken very gently to re-suspend all cells, and then 50 μl of cells were transferred to each well 384-well collagen I coated plate with appropriate liquid handling equipment, e.g. Integra VIAFLO384 or Agilent Bravo. The cells were then cultured for 24 hours in a cell incubator. For HBV infection, after PHH attachment on the culture plate, the plating medium was removed and replenished with PHH culture medium containing HBV virus. The PHH culture medium was prepared with Dulbecco's Modified Eagle Medium (DMEM)/F12 (1:1 in volume ratio) containing 10% fetal bovine serum (Gibco, Cat. 10099141), 5 ng/mL human epidermal growth factor (Gibco, Cat.PHG031IL), 20 ng/mL dexamethasone (Sigma, Cat.D4902-100 mg), 250 ng/mL human recombinant insulin (Gibco, Cat.41400045) and 100 U/mL penicillin. HBV virus at 200 genome equivalent (GE) per cell with 4% PEG8000 (Sigma, Cat.P1458) containing culture medium were added to the PHH culture medium for infection. The cells were then cultured for 24 hours in cell incubator. Then the cell culture supernatant was removed. The HBV-infected PHH were cultured with sandwich culture method with PHH culture medium containing 1% DMSO and 0.25 mg/mL matrix gel for 72 hours. The supernatant was then refreshed with PHH culture medium containing different concentrations of testing compounds for two times with 72-hour interval. At the end of treatment, the supernatant was collected for viral markers measurements, including HBsAg, HBeAg, HBV DNA and cytotoxicity. HBsAg and HBeAg were detected using alphalisa method using their specific antibodies. For HBV DNA detection, HBV DNA Quantitative Fluorescence Diagnostic Kit (Sansure Biotech Inc.) was used following the manufacture's protocol. Cytotoxicity was determined using Cell Counting Kit-8 (CCK8, Dojindo Molecular Technologies, Inc.).
(§2) The compounds of the present invention were tested for their capacity to inhibit HBsAg and HBeAg as described herein.

[2] = Cytotoxicity in PHH natural infection assay (Cell Counting Kit-8); format: cell-based; details: HBV-infected primary human hepatocytes, CCK8
Description: as §1

[3] = system: HBeAg; assay: PHH natural infection assay, HBeAg (alphalisa); format: cell-based, HBV; details: Hepatitis B virus, Hepatocyte, 72 h, read-out: HBeAg IC50
Description: as §1, §2

| SMILES | IC50 [1] | CC50 at 144 h [2] | IC50 [3] |
| --- | --- | --- | --- |
| O=C(CC(F)(F)F)Nc1ccc2nn(-c3ccc(F)cc3)nc2c1 [Example 44, 3,3,3-trifluoro-N-[2-(4-fluorophenyl)benzotriazol-5-yl]propanamide] | 6.87 µM | > 100 µM | 11.7 µM |
| COCCS(=O)(=O)c1ccc(-n2nc3ccc(N)cc3n2)cc1 [Example 9, 2-[4-(2-Methoxyethylsulfonyl)phenyl]benzotriazol-5-amine] | 4.07 µM | > 100 µM | 7.93 µM |
| Clc1ccc(-n2nc3ccc(NCC4CCOC4)cc3n2)cc1 (stereo not drawn) [Example 23, 2-(4-Chlorophenyl)-N-(tetrahydrofuran-3-ylmethyl)benzotriazol-5-amine] | 4.92 µM | > 100 µM | 7.67 µM |
| O=C(Nc1ccc2nn(-c3ccc(Cl)cc3)nc2c1)C1CCOC1 (stereo not drawn) [Example 48, N-[2-(4-chlorophenyl)benzotriazol-5-yl]tetrahydrofuran-3-carboxamide] | 4.81 µM | > 100 µM | 3.12 µM |
| Nc1ccc2nn(-c3cccc(F)c3)nc2c1 [Example 5, 2-(3-Fluorophenyl)benzotriazol-5-amine] | 3.57 µM | > 100 µM | 6.72 µM |
| O=C(Nc1ccc2nn(-c3ccc(Cl)cc3)nc2c1)C1CCCO1 (stereo not drawn) [Example 50, N-[2-(4-chlorophenyl)benzotriazol-5-yl]tetrahydrofuran-2-carboxamide] | 1.26 µM | > 100 µM | 1.37 µM |
| COc1ccc(-n2nc3ccc(N)cc3n2)cc1 [Example 3, 2-(4-Methoxyphenyl)benzotriazol-5-amine] | 1.5 µM | > 100 µM | 1.7 µM |
| CC(C)C(=O)NC(=S)Nc1ccc2nn(-c3ccc(Cl)cc3)nc2c1 [Example 57, N-[[2-(4-chlorophenyl)benzotriazol-5-yl]carbamothioyl]-2-methyl-propanamide] | 2.5 µM | > 100 µM | 3.72 µM |
| O=C(Nc1ccc2nn(-c3ccc(F)cc3)nc2c1)C1CCOC1 (stereo not drawn) [Example 40, N-[2-(4-fluorophenyl)benzotriazol-5-yl]tetrahydrofuran-3-carboxamide] | 6.66 µM | > 100 µM | 6.76 µM |
| COCCNc1ccc2nn(-c3cccc(Cl)c3)nc2c1 [Example 18, 2-(3-Chlorophenyl)-N-(2-methoxyethyl)benzotriazol-5-amine] | 4.5 µM | > 100 µM | 6.83 µM |
| Clc1ccc(-n2nc3ccc(Nc4nc(-c5ccccc5)cs4)cc3n2)cc1 [Example 63, N-[2-(4-chlorophenyl)benzotriazol-5-yl]-4-phenyl-thiazol-2-amine] | 1.52 µM | > 100 µM | 1.34 µM |
| CC(C)c1csc(Nc2ccc3nn(-c4ccc(Cl)cc4)nc3c2)n1 [Example 62, N-[2-(4-chlorophenyl)benzotriazol-5-yl]-4-isopropyl-thiazol-2-amine] | 3.8 µM | > 100 µM | 5.8 µM |
| CCCNc1ccc2nn(-c3ccc(Cl)cc3)nc2c1 [Example 14, 2-(4-Chlorophenyl)-N-propyl-benzotriazol-5-amine] | 2.92 µM | > 100 µM | 3.97 µM |
| CC(Nc1ccc2nn(-c3ccc(Cl)cc3)nc2c1)C(F)(F)F (stereo not drawn) [Example 32, 2-(4-Chlorophenyl)-N-(2,2,2-trifluoro-1-methyl-ethyl)benzotriazol-5-amine] | 9.14 µM | > 100 µM | 10.7 µM |
| CC(C)CS(=O)(=O)c1ccc(-n2nc3ccc(N)cc3n2)cc1 [Example 10, 2-(4-Isobutylsulfonylphenyl)benzotriazol-5-amine] | 9.57 µM | > 100 µM | 5.56 µM |
